Measured values: patent US20230158057A1, “COMPOSITIONS AND METHODS FOR THE TREATMENT OF PAIN” (Duke University, priority 2020, published 2023)
Entries after “also recorded” stand apart in the source; their conditions may differ.

Legend:
Type in all cases: in vivo, mouse
[1] = tested on: mice with LLC bone cancer pain (BCP); assay: Syngeneic bone cancer pain (BCP) model, i.t. treatment
Experimental: Mouse pain models: The chemotherapy-induced peripheral neuropathy (CIPN) model of chronic neuropathic pain was established as we have done previously, using 8-10-week-old CD-1 (strain #022, Charles River) mice injected with paclitaxel (2 mg/kg i.p.) every other day, with 4 injections total. The chronic constriction injury (CCI) model of neuropathic pain was also produced using 8-10-week-old CD-1 under isoflurane anesthesia. Briefly, the right sciatic nerve was exposed above the hip and two ligatures (7-0 Prolene) were placed around the nerve 1 mm apart located proximal to the trifurcation. Ligatures were loosely tied until a subtle flick of the ipsilateral hind limb was observed. CD-1 mice were also used to establish the SNI model, which was generated by tightly ligating the tibial and common peroneal nerves followed by transection and removal of a ˜3 mm portion of the nerve. The sural nerve was left intact and contact or stretching of this nerve was avoided . To establish the syngeneic bone cancer pain (BCP) model, 8-10-week-old C57BL/6J mice (strain #000664, Jackson Labs) were utilized, as the Lewis lung carcinoma cell line LLC1 (LL/2; ATCC CRL-1642) was originally generated in C57BL/6J mice. Mice were anesthetized with isoflurane and the left leg was shaved, disinfected with 10% povidone-iodine, and a 1 cm superficial incision was made to expose the patellar ligament. A 25-gauge needle was inserted at the intercondylar notch of the left femur into the femoral cavity, followed by needle replacement with a 10 μl Hamilton syringe microinjector containing a 2 μl suspension of LLC cells (2×10^5 cells) followed by a 2 μl gelatin sponge solution to enable closure of the injection site. All mice were housed and monitored in accordance with AAALAC standards and Duke IACUC guidelines that pertained to each model.
Reflexive-based sensory testing in mice: All behavioral testing in mice was performed in a specialized humidity- and light-controlled mouse behavior facility maintained at 21-24° C., with testing conducted between the hours of 8:00-16:00. Mice were habituated to the testing environment for at least 2 days prior to baseline testing. All tests were performed by an experimenter who was blinded to experimental conditions, including genotypes and drug treatment. For multi-day experiments using STING agonists, mice were tested in the same room at approximately the same time each day. To measure mechanical sensitivity, mice were confined to individual chambers with non-transparent borders on an elevated mesh rack, preventing mice from visualizing or interacting with one another during the testing period. […] We determined the 50% paw withdrawal threshold using the up-down method. […]

mice with CIPN or BCP = assay: Conditioned place preference (CPP) assay in chronic pain (CIPN and BCP) models; conditions: for conditioned place preference (ongoing pain): mice with CIPN or BCP, i.t.; for conditioned place preference, single pairing: mice with neuropathic pain (CIPN), i.t. 35 nmol
Experimental: All mice underwent 3 d of preconditioning habituation in a temperature- and humidity-controlled room under low-light conditions between 08:00-16:00 in a two compartment CPP chamber (Med Associates Inc.). The two compartments differed by both visual and tactile cues. On the 4th day, animal behavior was video-recorded using a webcam connected to a laptop computer, and animal movement was automatically tracked for 15 minutes using the ANY-Maze software (Stoelting). […] On the conditioning day(s) (day 5 for single trial; day 5-7 for repeated trials), two pairing sessions were performed, with vehicle pairing in the AM session and drug treatment (e.g., vehicle or drug) in the PM session, separated by 4 h. In the AM session, mice always received vehicle (10 μl saline, delivered via i.t. injection under isoflurane anesthesia) and were immediately placed in their preferred CPP chamber for 2 h. […] 24 h after the completion of the pairing experiments, mice were placed in the CPP test box with access to both chambers and behavior was recorded for 15 minutes and analyzed using the ANY-Maze software for chamber preference. CPP score was calculated as the inverse of the time spent in the preferred chamber according to: [post-preference (sec)—pre-preference (sec)]. Vehicle served as a negative control for these experiments, while morphine (three trials/naïve mice) or clonidine (single trial/ongoing pain) served as positive controls.

[2] = tested on: mice with intrafemoral Lewis lung carcinoma (LLC); assay: LLC bone cancer pain model, systemic (i.p.) treatment, behavior tests and body weight; conditions: for spontaneous and ongoing pain (flinching, guarding): d14; for body weight / cancer-induced cold allodynia / cancer-induced mechanical allodynia (paw withdrawal threshold): twice i.p.; for cancer-induced mechanical allodynia (paw withdrawal threshold): DMXAA, ADU-S100 20 mg/kg, ZA 100 μg/kg; for acute effect on bone cancer pain: d11, 4 h after single i.p. injection
Experimental: Bone cancer pain model. The murine cell lines LLC1, LL/2-Luc2 or E0771 were lightly digested using 0.05% trypsin, followed by centrifugation to remove poorly digested cell clusters. Cells were then resuspended in PBS at a concentration of 1×10^8 cells/ml. The inoculation was performed as previously described (Wang, K. et al. “PD-1 blockade inhibits osteoclast formation and murine bone cancer pain.” The Journal of clinical investigation, (2020); Wang, Z. et al. “Anti-PD-1 treatment impairs opioid antinociception in rodents and nonhuman primates.” Sci Transl Med 12 (2020)). Briefly, mice were anesthetized with 4% isoflurane and the left leg was shaved and the skin disinfected with 10% povidone-iodine and 75% ethanol. A superficial incision (0.5-1 cm) was made near the knee joint, exposing the patellar ligament. […] The syringe contents were slowly injected into the femoral cavity over a 2-minute interval. To prevent further leakage of tumor cells outside of the bone cavity, the outer injection site was sealed with silicone adhesive (Kwik-Sil, World Precision Instruments, US). Animals with surgery related movement dysfunction or with outside bone tumor injection were excluded from the study. Drug treatment. […] All other reagents were dissolved in sterile saline or PBS. For experiments utilizing rabbit anti-IFN-α or -β neutralizing antibodies, a polyclonal rabbit IgG antibody served as the control. […] Behavior tests. All the behavioral tests were conducted in a blinded manner and performed during between the hours of 9:00-16:00. Animals were habituated in a light and humidity controlled testing environment for at least 2 days prior to baseline testing. For Von Frey testing, mice were confined to individual 5×5 cm boxes placed on an elevated wire grid. A blinded experimenter stimulated their hindpaws using a series of von Frey filaments with logarithmically increasing stiffness (0.02-2.56 g, Stoelting). Each filament was applied perpendicularly to the central plantar surface. The 50% paw withdrawal threshold was determined using Dixon's up-down method.

Row | SMILES | cold allodynia [1] | tumor burden [1] | conditioned place preference (ongoing pain) (mice with CIPN or BCP) | conditioned place preference, single pairing (mice with CIPN or BCP) | spontaneous and ongoing pain (flinching, guarding) ([2]; LLC model) | withdrawal frequency to low-threshold stimulation (0.16 g Von Frey filament) ([2]; LLC model, i.p. at d3 and d10) | body weight ([2]; LLC model) | cancer-induced cold allodynia ([2]; LLC model) | cancer-induced mechanical allodynia (paw withdrawal threshold) ([2]; LLC model) | acute effect on bone cancer pain [2] | mechanical and cold allodynia, WT and Rag1^−/− ([2]; 20 mg/kg i.p. d3 and d7) | mechanical and cold allodynia, WT vs Ifnar1^−/− ([2]; 20 mg/kg i.p. d3 and d7) | mechanical and cold allodynia, WT vs STING^gt/gt ([2]; 20 mg/kg i.p. d3 and d7) | mechanical or cold allodynia in Batf3^−/− mice ([2]; 20 mg/kg i.p. d3 and d7) | acute effect on mechanical and cold allodynia, WT vs STING^gt/gt or Ifnar1^−/− ([2]; 20 mg/kg i.p., 4 h) | acute antinociceptive effects, WT vs Ifnar1-cKO ([2]; single 20 mg/kg i.p.)
1 | Nc1ncnc2c1ncn2[C@@H]1O[C@@H]2COP(=O)([S-])O[C@@H]3[C@H](O)[C@@H](COP([O-])(=S)O[C@H]2[C@H]1O)O[C@H]3n1cnc2c(N)ncnc21.[Na+].[Na+] (stereo partly drawn) [ADU-S100, (2′-5′)-[P(R)]-5′-O-[(R)-hydroxymercaptophosphinyl]-P-thioadenylyl-adenosine cyclic dinucleotide] | suppressed cold allodynia | tumor burden was unaffected | induced CPP in both models | induced comparable CPP as clonidine | exhibited reduced spontaneous and ongoing pain | could significantly attenuate mechanical allodynia in both measures on d10 and d14 | no effect on overall body weight | reduced cold allodynia on both d10 and d14 | could significantly attenuate mechanical allodynia in both measures on d10 and d14 | substantial reduction in mechanical allodynia, cold allodynia, and spontaneous pain |  |  |  |  |  | 
2 | Cc1ccc2c(=O)c3cccc(CC(=O)O)c3oc2c1C [DMXAA, 2-(5,6-dimethyl-9-oxo-9H-xanthen-4-yl)acetic acid] | suppressed cold allodynia | tumor burden was unaffected | induced CPP in both models | induced comparable CPP as clonidine | attenuated measures of spontaneous and ongoing pain |  | no differences in body weight; also recorded: did not see body weight changes | significantly reduced | significantly reduced mechanical allodynia on d7, d10 and d14 | substantial reduction in mechanical allodynia, cold allodynia, and spontaneous pain | reduced by DMXAA treatment in both WT and Rag1^−/− mice at early stages (7 d and 10 d), but not at later stages | effectively attenuated cancer-induced mechanical allodynia and cold allodynia in WT mice but not Ifnar1^−/− mice | significantly attenuated mechanical and cold allodynia in WT mice, and this effect was abolished in STING^gt/gt mice | could attenuate mechanical allodynia or cold allodynia in Batf3^−/− mice on d7 and d10 but not day 14 | could reduce mechanical allodynia and cold allodynia in WT mice but not in STING^gt/gt mice or Ifnar1^−/− mice | present in WT, but not Ifnar1-cKO littermates
